Test [1] deals with Pleiotropic ABC efflux transporter of multiple drugs (Saccharomyces cerevisiae S288c, UniProt P33302). Nature of the test: Inhibition of Pdr5p-mediated rhodamine 6G transport in Saccharomyces cerevisiae MKPDR5h plasma membrane by spectrofluorometric assay.
Test [2] deals with Pleiotropic ABC efflux transporter of multiple drugs (Saccharomyces cerevisiae S288c) (UniProt P33302). In words: Inhibition of Saccharomyces cerevisiae MKPDR5h multidrug transporter Pdr5p assessed as concentration required to threefold increase in rate of fluorescence signal relative to absence of inhibitor by fluorescein diacetate based high-throughput screening spectrofluorometric assay.
Pleiotropic ABC efflux transporter of multiple drugs (Saccharomyces cerevisiae S288c), sequence (P33302 whole entry): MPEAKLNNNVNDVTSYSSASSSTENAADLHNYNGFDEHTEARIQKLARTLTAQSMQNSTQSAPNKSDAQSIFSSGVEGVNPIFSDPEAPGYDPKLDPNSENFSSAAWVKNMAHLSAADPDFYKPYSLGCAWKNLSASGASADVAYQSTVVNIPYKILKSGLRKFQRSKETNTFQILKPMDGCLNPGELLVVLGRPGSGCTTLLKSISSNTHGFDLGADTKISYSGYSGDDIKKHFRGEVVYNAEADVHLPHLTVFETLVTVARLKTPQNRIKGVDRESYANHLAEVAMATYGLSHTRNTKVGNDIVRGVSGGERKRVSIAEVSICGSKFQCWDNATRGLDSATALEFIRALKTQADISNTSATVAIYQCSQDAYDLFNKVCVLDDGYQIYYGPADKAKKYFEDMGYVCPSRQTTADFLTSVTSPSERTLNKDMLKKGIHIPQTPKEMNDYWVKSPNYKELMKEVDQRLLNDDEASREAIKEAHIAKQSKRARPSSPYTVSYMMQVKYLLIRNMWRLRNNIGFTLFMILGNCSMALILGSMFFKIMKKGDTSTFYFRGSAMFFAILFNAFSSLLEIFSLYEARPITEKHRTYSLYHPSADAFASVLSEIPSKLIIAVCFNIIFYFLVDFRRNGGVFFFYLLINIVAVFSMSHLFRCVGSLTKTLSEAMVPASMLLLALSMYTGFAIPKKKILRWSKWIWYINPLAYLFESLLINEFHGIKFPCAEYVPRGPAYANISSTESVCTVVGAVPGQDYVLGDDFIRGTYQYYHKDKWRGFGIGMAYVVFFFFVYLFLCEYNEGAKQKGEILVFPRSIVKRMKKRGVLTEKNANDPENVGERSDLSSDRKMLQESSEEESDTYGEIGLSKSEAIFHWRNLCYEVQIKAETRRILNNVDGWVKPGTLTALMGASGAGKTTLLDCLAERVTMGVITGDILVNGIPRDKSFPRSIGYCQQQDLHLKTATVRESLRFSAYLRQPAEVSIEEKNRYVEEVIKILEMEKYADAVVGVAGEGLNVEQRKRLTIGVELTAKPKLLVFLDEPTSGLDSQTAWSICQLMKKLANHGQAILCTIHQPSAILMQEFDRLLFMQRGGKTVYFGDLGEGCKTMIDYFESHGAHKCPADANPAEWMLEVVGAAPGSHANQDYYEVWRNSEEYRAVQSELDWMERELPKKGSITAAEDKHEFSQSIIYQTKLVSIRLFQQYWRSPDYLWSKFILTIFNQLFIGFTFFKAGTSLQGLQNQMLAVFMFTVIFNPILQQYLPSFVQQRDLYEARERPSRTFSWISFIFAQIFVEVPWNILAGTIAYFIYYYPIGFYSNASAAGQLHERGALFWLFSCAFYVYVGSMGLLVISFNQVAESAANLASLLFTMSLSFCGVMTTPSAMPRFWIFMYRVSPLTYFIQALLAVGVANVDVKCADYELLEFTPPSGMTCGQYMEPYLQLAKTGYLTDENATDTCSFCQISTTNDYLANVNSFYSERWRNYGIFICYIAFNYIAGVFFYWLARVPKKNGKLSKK

The test system of test [3] is Saccharomyces cerevisiae. In words: Inhibition of Saccharomyces cerevisiae MKCDR1h multidrug transporter Cdr1p assessed as concentration required to threefold increase in rate of fluorescence signal relative to absence of inhibitor by fluorescein diacetate based high-throughput screening spectrofluorometric assay.
Test [4] concerns the target Snq2p (Saccharomyces cerevisiae (strain Lalvin EC1118 / Prise de mousse)(Baker's yeast)) (UniProt C8Z4T0). In words: Inhibition of Saccharomyces cerevisiae MKSNQ2h multidrug transporter Snq2p assessed as concentration required to threefold increase in rate of fluorescence signal relative to absence of inhibitor by fluorescein diacetate based high-throughput screening spectrofluorometric assay.

Test [5] relates to Saccharomyces cerevisiae. In words: Inhibition of Saccharomyces cerevisiae MKCDR1h multidrug transporter Cdr1p assessed as potentiation of ketoconazole-induced antifungal activity by Checkerboard assay.

The structures appear in SMILES notation.

Snq2p (Saccharomyces cerevisiae (strain Lalvin EC1118 / Prise de mousse)(Baker's yeast)), sequence (C8Z4T0 as listed by the source): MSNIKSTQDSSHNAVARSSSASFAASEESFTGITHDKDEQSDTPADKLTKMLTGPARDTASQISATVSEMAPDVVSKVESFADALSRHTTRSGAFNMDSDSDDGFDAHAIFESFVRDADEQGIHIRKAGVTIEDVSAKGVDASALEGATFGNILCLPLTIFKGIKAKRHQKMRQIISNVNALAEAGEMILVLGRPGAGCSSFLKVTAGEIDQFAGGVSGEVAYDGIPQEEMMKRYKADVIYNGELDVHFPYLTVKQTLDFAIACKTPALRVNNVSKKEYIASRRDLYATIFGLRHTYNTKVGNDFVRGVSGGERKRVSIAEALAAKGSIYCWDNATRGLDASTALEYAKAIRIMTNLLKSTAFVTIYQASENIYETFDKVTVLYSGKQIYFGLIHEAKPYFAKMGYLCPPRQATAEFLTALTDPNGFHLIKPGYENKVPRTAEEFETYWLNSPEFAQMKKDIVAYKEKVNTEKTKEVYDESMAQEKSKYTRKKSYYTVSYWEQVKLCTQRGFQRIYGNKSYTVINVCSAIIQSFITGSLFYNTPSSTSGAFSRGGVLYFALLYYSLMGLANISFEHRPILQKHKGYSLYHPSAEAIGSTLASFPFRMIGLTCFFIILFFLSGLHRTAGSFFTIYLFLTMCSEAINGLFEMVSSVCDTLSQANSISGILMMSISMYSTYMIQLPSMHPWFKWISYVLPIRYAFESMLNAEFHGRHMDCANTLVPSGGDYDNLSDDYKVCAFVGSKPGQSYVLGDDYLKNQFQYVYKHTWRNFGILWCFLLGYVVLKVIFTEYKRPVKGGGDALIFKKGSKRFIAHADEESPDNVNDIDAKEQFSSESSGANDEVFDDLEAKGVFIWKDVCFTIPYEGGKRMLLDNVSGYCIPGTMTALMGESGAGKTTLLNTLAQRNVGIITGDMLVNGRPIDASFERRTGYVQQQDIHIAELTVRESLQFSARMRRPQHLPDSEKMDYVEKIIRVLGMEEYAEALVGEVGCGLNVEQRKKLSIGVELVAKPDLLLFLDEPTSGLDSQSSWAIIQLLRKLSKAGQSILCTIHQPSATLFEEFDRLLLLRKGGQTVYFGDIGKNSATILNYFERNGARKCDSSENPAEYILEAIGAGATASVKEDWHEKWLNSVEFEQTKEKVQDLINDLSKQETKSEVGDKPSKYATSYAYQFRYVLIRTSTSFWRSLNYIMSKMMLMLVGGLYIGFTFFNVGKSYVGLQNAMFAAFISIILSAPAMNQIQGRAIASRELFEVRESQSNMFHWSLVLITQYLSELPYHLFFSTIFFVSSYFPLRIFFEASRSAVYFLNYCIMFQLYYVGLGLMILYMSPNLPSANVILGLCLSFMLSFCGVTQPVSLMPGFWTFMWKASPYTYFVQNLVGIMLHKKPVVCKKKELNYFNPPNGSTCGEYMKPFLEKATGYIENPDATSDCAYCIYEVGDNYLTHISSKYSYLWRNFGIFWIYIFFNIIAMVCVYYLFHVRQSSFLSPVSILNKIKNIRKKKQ
Pleiotropic ABC efflux transporter of multiple drugs, sequence (P33302 whole entry): as the sequence (P33302 whole entry) above

Turning to `NCCCCN1c2ccccc2Sc2ccc(Cl)cc21`, the midpoint of inhibition in test [1], the IC50, lay at 0.7 µM. In addition, the INH in test [2] was found to be 1.9 µM; in the test with Saccharomyces cerevisiae [3] it was 1.9 µM; in test [4], 2.1 µM. The fractional inhibitory concentration index (FICI) in the test with Saccharomyces cerevisiae [5] worked out at 0.06.

In test [1], `NCCCCN1c2ccccc2Sc2ccc(C(F)(F)F)cc21` returned an IC50 of 1.3 µM. The INH in test [2] worked out at 3.7 µM; in the test on Saccharomyces cerevisiae [3], 4.6 µM; in test [4], 4.6 µM.

Take `NCCCCN1c2ccccc2Sc2ccccc21`: the IC50 in test [1] was determined as 3.1 µM. Besides, the INH came to 7 µM in test [2], 29 µM with Saccharomyces cerevisiae [3] and 13.5 µM in test [4].

Turning to `NCCCN1c2ccccc2Sc2ccc(C(F)(F)F)cc21`, the half-maximal inhibitory concentration (IC50) in test [1] amounted to 6.4 µM. The results for the INH (in test [2]; with Saccharomyces cerevisiae [3]; in test [4]) were 7.7 µM, 6.5 µM and 6.9 µM, respectively.

In test [1], `NCCCN1c2ccccc2Sc2ccccc21` returned an IC50 of 7.4 µM. For the same compound, the results for the INH (in test [2]; in the test with Saccharomyces cerevisiae [3]; in test [4]) were 14.7 µM, 36 µM and 12.4 µM, respectively.

Take `CSc1ccc2c(c1)N(CCC1CCCCN1C)c1ccccc1S2` (stereo not drawn): the INH is 17 µM in test [2], 26 µM with Saccharomyces cerevisiae [3] and 19.4 µM in test [4].

With `O=C(O)CCCCCCNC1c2ccccc2CCc2ccccc21` [AMINEPTINE], the IC50 in test [1] is greater than 400 µM. Further, the INH (in test [2]; with Saccharomyces cerevisiae [3]; in test [4]) was greater than 433 µM throughout.

In test [1], `CN(C)CCCN1c2ccccc2Sc2ccc(Cl)cc21` [CHLORPROMAZINE] gave an IC50 of 4.5 µM. Besides, the INH in test [2] was determined as 57 µM; in the test with Saccharomyces cerevisiae [3], 57 µM; in test [4] it was 32 µM.

`CN(C)CC/C=C1/c2ccccc2Sc2ccc(Cl)cc21` [CHLORPROTHIXENE] returned an IC50 in test [1] of 5.1 µM. In addition, the figures for the INH (in test [2]; in the test with Saccharomyces cerevisiae [3]; in test [4]) were 26 µM, 53 µM and 22 µM, respectively.

In the case of `COc1ccc2c(c1)N(C[C@@H](C)CN(C)C)c1ccccc1S2` [DEXTROMEPROMAZINE], in test [1], the IC50 turned out to be 9 µM. Further, the INH in test [2] was 101 µM; in the test with Saccharomyces cerevisiae [3] it was 273 µM; in test [4] it was 100 µM.

Compound `CCN(CC)CCN1c2ccccc2Sc2ccccc21` [DIETHAZINE] gave an IC50 in test [1] of 10.3 µM. Further, the INH in test [2] came out at 331 µM; with Saccharomyces cerevisiae [3], 317 µM; in test [4] it was 239 µM.

In test [1], `OCCN1CCN(CCCN2c3ccccc3Sc3ccc(C(F)(F)F)cc32)CC1` [FLUPHENAZINE] came in with a half-inhibitory concentration (IC50) of 1.7 µM. Also, the INH is 5.4 µM in test [2], 12.4 µM in the test on Saccharomyces cerevisiae [3] and 8.8 µM in test [4]. The fractional inhibitory concentration index (FICI) in the test with Saccharomyces cerevisiae [5] stood at 0.09.

On to `CN(C)CCCN1c2ccccc2CCc2ccccc21` [IMIPRAMINE], for which 22 µM corresponded to half-maximal inhibition in test [1] (IC50). Also, the INH in test [2] was 166 µM; with Saccharomyces cerevisiae [3] it was greater than 433 µM; in test [4] it was 198 µM.

For `COc1ccc2c(c1)N(C[C@H](C)CN(C)C)c1ccccc1S2` [LEVOMEPROMAZINE], half-maximal inhibition in test [1] (IC50) was put at 9.6 µM. Moreover, the INH in test [2] is 128 µM; in the test on Saccharomyces cerevisiae [3] it was 252 µM; in test [4], 100 µM.

In test [1], `NCCCN1c2ccccc2Sc2ccc(Cl)cc21` [NOR2-CHLORPROMAZINE] returned an IC50 of 3.2 µM. Also, the INH stood at 4.2 µM in test [2], 4.3 µM with Saccharomyces cerevisiae [3] and 5.8 µM in test [4].

`OCCN1CCN(CCCN2c3ccccc3Sc3ccc(Cl)cc32)CC1` [PERPHENAZINE]: it took 1.4 µM to reach half-maximal inhibition in test [1] (IC50). The INH is 6.4 µM in test [2], 17.2 µM in the test on Saccharomyces cerevisiae [3] and 13.1 µM in test [4].

`c1ccc2c(c1)Nc1ccccc1S2` [PHENOTHIAZINE]: the IC50 in test [1] is greater than 400 µM. For the same compound, the values for the INH (in test [2]; with Saccharomyces cerevisiae [3]; in test [4]) were greater than 433 µM, greater than 433 µM and 90 µM, respectively.

Compound `CN1CCN(CCCN2c3ccccc3Sc3ccc(Cl)cc32)CC1` [PROCHLORPERAZINE] showed an IC50 in test [1] of 1.7 µM. Also, the INH was 7.2 µM in test [2], 11 µM in the test with Saccharomyces cerevisiae [3] and 6.6 µM in test [4].

In test [1], `CN(C)CCCN1c2ccccc2Sc2ccccc21` [PROMAZINE] registered a half-maximal inhibitory concentration (IC50) of 11.3 µM. The values for the INH (in test [2]; in the test with Saccharomyces cerevisiae [3]; in test [4]) were 96 µM, 278 µM and 131 µM, respectively.

For the compound `CC(CN1c2ccccc2Sc2ccccc21)N(C)C` (stereo not drawn) [PROMETHAZINE], in test [1], the midpoint of inhibition, the IC50, lay at 17.7 µM. For the same compound, the INH in test [2] came to 285 µM; with Saccharomyces cerevisiae [3], 275 µM; in test [4], 117 µM.

In turn, `CCSc1ccc2c(c1)N(CCCN1CCN(C)CC1)c1ccccc1S2` [THIETHYLPERAZINE] yielded an IC50 in test [1] of 2.3 µM. The figures for the INH (in test [2]; with Saccharomyces cerevisiae [3]; in test [4]) were 5.6 µM, 9.4 µM and 3.2 µM, respectively.

For `CN1CCN(CCCN2c3ccccc3Sc3ccc(C(F)(F)F)cc32)CC1` [TRIFLUOPERAZINE], the IC50 in test [1] came out at 1.4 µM. The INH in test [2] was 8.3 µM; in the test on Saccharomyces cerevisiae [3], 9.8 µM; in test [4], 6.9 µM.

Consider `CN(C)CCCN1c2ccccc2Sc2ccc(C(F)(F)F)cc21` [TRIFLUPROMAZINE], for which the IC50 in test [1] stood at 4.9 µM. The INH in test [2] was 47 µM; in the test with Saccharomyces cerevisiae [3] it was 49 µM; in test [4], 47 µM.

These data come from ChEMBL document CHEMBL1687730, “New high-throughput screening assay to reveal similarities and differences in inhibitory sensitivities of multidrug ATP-binding cassette transporters” (Antimicrob Agents Chemother, 2009).
